Laboratory results published in publication PMC11321638 (Advanced Science, 2024).
No end group written: not given here.

Tests used:
[1] = biological target: T1, protease K (Parengyodontium album, UniProt P06873)
[2] = test system: BALB/c mice; details: mouse, in vivo, sc
[3] = biological target: T1, protease K; assay: in vitro; details: isolated enzyme

T1 sequence (P06873 106-384 limits assumed): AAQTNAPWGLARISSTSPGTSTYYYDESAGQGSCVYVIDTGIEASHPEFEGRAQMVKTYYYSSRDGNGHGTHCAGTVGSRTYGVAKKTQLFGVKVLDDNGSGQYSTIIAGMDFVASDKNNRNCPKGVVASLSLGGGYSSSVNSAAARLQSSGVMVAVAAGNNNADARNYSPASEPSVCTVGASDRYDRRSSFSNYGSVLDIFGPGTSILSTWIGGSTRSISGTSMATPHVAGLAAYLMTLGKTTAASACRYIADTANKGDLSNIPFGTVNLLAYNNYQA

SEFMRNALEEMLRRA-NH2 [RSIpep]
t1/2 with protease K [1]: less than 1 h | pathological section analysis of heart, liver, spleen, lung, kidney [2]: no discernible pathological alterations | half-life [3]: 37.2 ± 1.8 min
